Reference: ChEMBL document CHEMBL3124831, “Simplified 2-aminoquinoline-based scaffold for potent and selective neuronal nitric oxide synthase inhibition” (J Med Chem, 2014)

Experiments:
[1] = Selectivity ratio of Ki for bovine recombinant eNOS to Ki for rat recombinant nNOS
[2] = Selectivity ratio of Ki for mouse recombinant iNOS to Ki for rat recombinant nNOS
Nitric oxide synthase 1 = Nitric oxide synthase 1 (Rattus norvegicus, UniProt P29476)
[3] = target: T1, Nitric oxide synthase, inducible (Mus musculus, UniProt P29477)
T1 sequence (P29477 whole entry): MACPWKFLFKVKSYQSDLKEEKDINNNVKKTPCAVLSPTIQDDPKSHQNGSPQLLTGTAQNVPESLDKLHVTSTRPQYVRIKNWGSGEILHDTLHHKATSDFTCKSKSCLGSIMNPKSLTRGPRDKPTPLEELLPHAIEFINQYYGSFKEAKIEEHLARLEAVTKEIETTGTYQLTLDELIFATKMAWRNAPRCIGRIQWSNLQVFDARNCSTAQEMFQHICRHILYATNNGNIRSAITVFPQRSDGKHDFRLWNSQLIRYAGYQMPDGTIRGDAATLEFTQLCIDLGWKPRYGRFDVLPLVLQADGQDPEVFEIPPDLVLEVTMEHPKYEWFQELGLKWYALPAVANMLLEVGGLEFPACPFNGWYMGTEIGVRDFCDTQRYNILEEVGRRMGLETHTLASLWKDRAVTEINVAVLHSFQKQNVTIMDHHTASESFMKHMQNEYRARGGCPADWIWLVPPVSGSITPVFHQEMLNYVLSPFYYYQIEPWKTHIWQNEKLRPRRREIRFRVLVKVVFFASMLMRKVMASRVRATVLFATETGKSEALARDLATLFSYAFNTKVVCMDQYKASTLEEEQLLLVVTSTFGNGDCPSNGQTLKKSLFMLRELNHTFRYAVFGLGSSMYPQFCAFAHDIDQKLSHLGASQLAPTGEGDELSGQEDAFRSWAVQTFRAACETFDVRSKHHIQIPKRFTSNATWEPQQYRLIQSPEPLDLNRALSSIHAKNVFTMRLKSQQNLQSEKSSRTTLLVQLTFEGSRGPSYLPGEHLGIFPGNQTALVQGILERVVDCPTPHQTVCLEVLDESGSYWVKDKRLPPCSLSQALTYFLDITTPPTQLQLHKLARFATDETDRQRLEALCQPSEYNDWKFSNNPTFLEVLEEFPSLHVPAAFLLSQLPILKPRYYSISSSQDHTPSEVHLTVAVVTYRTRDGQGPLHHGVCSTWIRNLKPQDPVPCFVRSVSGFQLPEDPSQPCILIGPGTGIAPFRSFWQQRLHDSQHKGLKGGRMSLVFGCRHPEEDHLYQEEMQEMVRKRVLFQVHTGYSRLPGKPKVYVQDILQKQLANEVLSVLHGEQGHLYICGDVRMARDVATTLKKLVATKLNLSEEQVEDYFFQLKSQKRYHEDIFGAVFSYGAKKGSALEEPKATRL

Nitric oxide synthase 3 = target: T2, Nitric oxide synthase 3 (Bos taurus, UniProt P29473)
T2 sequence (P29473 whole entry): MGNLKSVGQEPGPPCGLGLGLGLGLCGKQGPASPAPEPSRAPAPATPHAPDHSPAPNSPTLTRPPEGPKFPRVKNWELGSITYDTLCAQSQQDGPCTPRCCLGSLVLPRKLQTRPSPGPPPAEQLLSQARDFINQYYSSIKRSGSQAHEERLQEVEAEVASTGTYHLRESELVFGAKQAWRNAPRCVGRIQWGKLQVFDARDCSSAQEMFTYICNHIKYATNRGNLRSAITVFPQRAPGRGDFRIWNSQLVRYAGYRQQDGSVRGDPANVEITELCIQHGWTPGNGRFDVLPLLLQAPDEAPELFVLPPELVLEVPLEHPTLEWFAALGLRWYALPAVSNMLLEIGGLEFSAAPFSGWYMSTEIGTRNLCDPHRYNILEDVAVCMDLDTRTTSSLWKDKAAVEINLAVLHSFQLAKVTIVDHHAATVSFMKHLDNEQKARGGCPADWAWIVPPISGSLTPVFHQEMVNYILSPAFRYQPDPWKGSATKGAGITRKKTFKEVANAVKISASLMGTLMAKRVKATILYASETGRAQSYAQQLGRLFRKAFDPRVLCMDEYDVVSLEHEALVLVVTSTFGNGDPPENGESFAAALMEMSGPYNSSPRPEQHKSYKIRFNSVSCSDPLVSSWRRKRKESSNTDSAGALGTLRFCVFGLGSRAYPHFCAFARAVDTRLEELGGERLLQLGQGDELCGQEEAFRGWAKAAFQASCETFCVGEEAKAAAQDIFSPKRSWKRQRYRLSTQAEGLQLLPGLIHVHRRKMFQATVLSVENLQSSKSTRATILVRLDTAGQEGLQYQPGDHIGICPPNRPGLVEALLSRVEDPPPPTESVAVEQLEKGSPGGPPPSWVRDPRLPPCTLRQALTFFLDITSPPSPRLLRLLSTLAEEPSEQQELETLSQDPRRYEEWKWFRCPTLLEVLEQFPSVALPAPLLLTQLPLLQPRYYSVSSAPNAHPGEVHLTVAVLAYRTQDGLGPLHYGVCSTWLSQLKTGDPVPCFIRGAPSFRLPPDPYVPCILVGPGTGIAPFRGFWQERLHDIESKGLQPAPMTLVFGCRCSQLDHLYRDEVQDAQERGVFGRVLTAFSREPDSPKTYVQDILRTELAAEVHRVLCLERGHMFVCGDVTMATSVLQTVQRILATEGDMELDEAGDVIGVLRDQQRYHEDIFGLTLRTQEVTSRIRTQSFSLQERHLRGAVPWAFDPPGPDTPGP

Caco-2 = settings: human, caco-2, 2 h, 10 µM

Sequence of Nitric oxide synthase 1 (P29476 whole entry): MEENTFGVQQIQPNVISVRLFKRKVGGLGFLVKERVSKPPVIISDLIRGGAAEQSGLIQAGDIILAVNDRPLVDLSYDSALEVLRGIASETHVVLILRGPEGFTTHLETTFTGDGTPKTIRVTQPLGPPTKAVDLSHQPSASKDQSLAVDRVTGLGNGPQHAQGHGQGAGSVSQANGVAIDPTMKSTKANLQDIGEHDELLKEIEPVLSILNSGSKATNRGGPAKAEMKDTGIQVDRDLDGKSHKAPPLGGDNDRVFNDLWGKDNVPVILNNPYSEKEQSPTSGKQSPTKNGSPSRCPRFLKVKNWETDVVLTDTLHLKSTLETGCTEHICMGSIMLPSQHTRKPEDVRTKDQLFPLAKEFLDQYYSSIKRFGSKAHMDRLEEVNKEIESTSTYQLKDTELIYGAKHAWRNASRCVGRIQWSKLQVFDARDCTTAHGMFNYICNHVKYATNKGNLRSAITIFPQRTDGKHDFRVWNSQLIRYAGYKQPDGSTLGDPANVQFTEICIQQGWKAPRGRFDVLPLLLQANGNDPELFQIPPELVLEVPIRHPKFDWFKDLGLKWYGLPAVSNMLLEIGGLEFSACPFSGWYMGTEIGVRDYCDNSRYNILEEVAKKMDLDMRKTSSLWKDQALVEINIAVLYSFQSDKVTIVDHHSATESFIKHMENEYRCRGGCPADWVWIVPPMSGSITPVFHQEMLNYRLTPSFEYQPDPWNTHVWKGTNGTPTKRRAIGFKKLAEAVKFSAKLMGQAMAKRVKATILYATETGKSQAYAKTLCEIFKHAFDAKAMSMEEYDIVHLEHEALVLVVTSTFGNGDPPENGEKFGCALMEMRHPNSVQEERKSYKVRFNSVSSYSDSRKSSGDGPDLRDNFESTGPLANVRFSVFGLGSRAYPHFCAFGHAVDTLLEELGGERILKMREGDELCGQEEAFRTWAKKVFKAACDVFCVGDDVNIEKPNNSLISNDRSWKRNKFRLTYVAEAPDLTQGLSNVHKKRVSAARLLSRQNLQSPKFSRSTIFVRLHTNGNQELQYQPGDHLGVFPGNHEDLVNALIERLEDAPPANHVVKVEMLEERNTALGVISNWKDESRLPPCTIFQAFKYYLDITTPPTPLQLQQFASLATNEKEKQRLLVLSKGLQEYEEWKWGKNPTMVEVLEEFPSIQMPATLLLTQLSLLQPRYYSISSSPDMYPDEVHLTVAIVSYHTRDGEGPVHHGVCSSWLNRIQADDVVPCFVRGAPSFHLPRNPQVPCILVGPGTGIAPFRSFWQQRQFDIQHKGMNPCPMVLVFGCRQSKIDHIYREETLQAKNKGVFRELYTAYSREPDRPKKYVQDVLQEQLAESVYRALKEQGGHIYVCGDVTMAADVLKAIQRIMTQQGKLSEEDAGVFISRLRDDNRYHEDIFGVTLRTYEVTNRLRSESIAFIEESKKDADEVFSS

| SMILES | Ratio Ki [1] | Ratio Ki [2] | Ki (Nitric oxide synthase 1) [µM] | other results |
| --- | --- | --- | --- | --- |
| Nc1ccc2ccc(CCNCCc3ccc(F)cc3)cc2n1 | 37 | 280 |  |  |
| Nc1ccc2cc(CCNCCc3cccc(F)c3)ccc2n1 |  |  | > 5.7 |  |
| Nc1ccc2ccc(CCNCCc3ccc(Cl)cc3)cc2n1 | 47 | 91 |  |  |
| Nc1ccc2cc(CNCCc3cccc(F)c3)ccc2n1 |  |  | > 5.7 |  |
| Nc1ccc2ccc(CNCCc3cccc(F)c3)cc2n1 | 6.2 | 124 |  |  |
| Cl.Cl.Cl.N=C(Nc1ccc(CCNCc2cccc(Cl)c2)cc1)c1cccs1 |  |  |  | IC50 (Nitric oxide synthase 1): 0.035 µM; Drug recovery (Caco-2): 78% |
| Nc1ccc2cc(CCNCCCc3cccc(F)c3)ccc2n1 |  |  | 4.37 |  |

Second part, led by results:

| Ratio Ki [1] | Ratio Ki [2] | Ki (Nitric oxide synthase 1) [µM] | SMILES | other results |
| --- | --- | --- | --- | --- |
| 62 | 538 | 0.06 | Nc1ccc2ccc(CNCCCc3cccc(F)c3)cc2n1 | Ki [3]: 32.3 µM; Ki (Nitric oxide synthase 3): 3.69 µM |
| 30 | 97 |  | Nc1ccc2ccc(CCNCc3cccc(F)c3)cc2n1 |  |
|  |  | > 5.7 | Nc1ccc2cc(CCNCc3cccc(F)c3)ccc2n1 |  |
